What was measured:
[1] = LogP; format: physicochemical
[2] = target: T1, human progelatinase A (GelA), catalytic and fibronectin-like portion (Homo sapiens, UniProt P08253); assay: Fluorometric MCA-peptide hydrolysis assay, gelatinase A (GelA); format: biochemical; details: apparent Ki; 10 μM MCA peptide substrate, 37° C., pH 7.5
T1 construct: The catalytic and fibronectin-like portion of human progelatinase A (GelA) was expressed as a fusion protein with ubiquitin; ubiquitin; made in house; host or cells: E. coli
Method in brief: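 E. coli-expressed ubiquitin fusion of human proGelA catalytic plus fibronectin-like domains, autoactivated; 10 μM MCA-Pro-Leu-Gly-Leu-DPA-Ala-Arg-NH2, pH 7.5 Tricine/NaCl/CaCl2/Zn buffer, 2% DMSO, 37° C, 60 min. Fluorescence 328/393 nm; steady-state rates fitted to competitive inhibition or Morrison tight-binding equation giving Ki,app (≈Ki since [S]<<Km).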

[3] = Determination of inhibitor concentration in plasma after oral dosing; format: in vivo, Sprague Dawley rats; details: Sprague-Dawley, rat plasma, dose 50 mg/kg, vehicle B (60% aq. propylene glycol)
Experimental: The dosing solution consisted of the inhibitor dissolved in either a molar equivalent of HCl in water (vehicle A), in 60% aq. propylene glycol (vehicle B), or in 2.8 mg/mL sodium bicarbonate in 60% aqueous propylene glycol (vehicle C), yielding a final concentration that ranged from 10-15 mg/ml. Sprague Dawley rats (Hilltop Lab Animals, Scottsdale, Pa.) were dosed as a function of drug weight per body weight, usually 50 mgper kg. Blood was taken from the rats and centrifuged, and the plasma was stored in the freezer. Drug was extracted from a 50 μl plasma aliquot by adding 1 ml of acetonitrile, shaking for 2 minutes, centrifuging for 15 minutes at 4000 rpm, collecting the supernatant, and then evaporating it to dryness under a stream of nitrogen. The samples were reconstituted with 130 μl of mobile phase, shook for 2 minutes, and centrifuged for 15 minutes at 4000 rpm. The supernatant was collected and the samples were analyzed by injecting 100 μl of supernatant onto HPLC.
Quantitation of drug levels was accomplished by generating a standard curve of known drug amounts that were extracted from added plasma. Drug levels were plotted as a function of time and analyzed to provide area under the curve (AUC) and maximum concentration (Cmax) values.

T1 sequence (P08253 110-465 limits assumed): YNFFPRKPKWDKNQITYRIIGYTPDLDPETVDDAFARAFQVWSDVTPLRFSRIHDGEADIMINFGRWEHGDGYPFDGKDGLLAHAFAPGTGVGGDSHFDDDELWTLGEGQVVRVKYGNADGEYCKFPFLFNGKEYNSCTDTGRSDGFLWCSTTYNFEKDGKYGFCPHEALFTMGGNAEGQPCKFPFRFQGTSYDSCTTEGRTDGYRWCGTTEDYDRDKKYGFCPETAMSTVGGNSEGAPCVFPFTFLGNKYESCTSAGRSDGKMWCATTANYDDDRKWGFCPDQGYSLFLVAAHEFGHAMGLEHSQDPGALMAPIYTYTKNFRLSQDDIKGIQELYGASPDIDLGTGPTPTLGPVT

Question: Which logP [1] does the source give for `CNC(=O)[C@@H](NC(=O)[C@@H](CC(=O)O)n1ccc(-c2ccc(-c3ccc(C#N)cc3)cc2)c1)C(C)(C)C` [Example 5(c), 3(R)-[3-(4′-Cyanobiphenyl-4-yl)-1H-pyrrol-1-yl]-N-[2,2-dimethyl-1(S)-(methylcarbamoyl)propyl]succinamic Acid] here?
Answer: The logP was 3.41.

Question: What about the GelA (Ki,app) [2] of the same molecule?
Answer: Its GelA (Ki,app) is 0.041 nM.

Question: And the AUC [3]?
Answer: The AUC was 1220 ng·h/mL.

Question: What about the Cmax [3] of the same molecule?
Answer: Its Cmax is 410 ng/mL.
